Like-named read-outs stand apart in the source and are kept apart here.
How the values were obtained:
mesenteric artery = assay: Relaxation of mesenteric artery (KCl-contracted); details: rabbit mesenteric artery contracted with 15 to 20 mM KCl, read-out: ED50 (concentration attaining 50% of complete relaxation)
Protocol: 1. Relaxation of Mesenteric Artery
A rabbit of Japanese local variety weighing about 3 kg was bled to death. Then, the abdomen of the rabbit was dissected to locate a mesenteric artery. […] Thus, shrinking and relaxation of the artery could be measured as a load on the transducer. To the organ bath, KCl was added so that the KCl concentration became 15 to 20 mM, causing the artery to shrink. Then, the compounds of the present invention were added to the organ bath to observe relaxation of the artery.
The effect of the compounds of the present invention on relaxation of mesenteric artery was examined according to the method as mentioned hereinbefore.

bronchial tubes = assay: Inhibition of histamine contraction of bronchial tubes (relaxation of bronchial tubes); details: guinea pig bronchial tube, 10 μM histamine, Table 16, read-out: ED50 (50% decrease of histamine contraction of bronchial tubes)
Protocol: 3. Inhibition of Histamine Contraction of Bronchial Tubes (Relaxation of Bronchial Tubes)
That is, a bronchial tube sample taken from a guinea pig was suspended in the 20-ml bath filled with Krebs-Henseleit nutrient solution and maintained at a temperature of 37° C. To the bath was added histamine so that the histamine concentration became 10 μM, causing the bronchial tube sample to contract. After the contraction became stable, the compounds of the present invention were added cumulatively to the bath to observe relaxation of the bronchial tube sample.
The effect of the compounds of the present invention on relaxation of bronchial tubes was examined according to the method as mentioned hereinbefore.

1-(1-chloro-5-isoquinolinesulfonyl)-3-(N-hexyl-N-methylamino)piperidine [Compound (100)]
EC50 (mesenteric artery): 22 µM | EC50 (bronchial tubes): 22 µM

CCCCCCN(C(C)CNC(C)C)S(=O)(=O)c1cccc2cnccc12 (stereo not shown) [(39), N-hexyl-N-(2-isopropylamino-1-methylethyl)-5-isoquinolinesulfonamide]
EC50 (mesenteric artery; Oryctolagus cuniculus): 11 µM | EC50 (bronchial tubes; Cavia porcellus): 20 µM

CN(CCN)S(=O)(=O)c1cccc2cnccc12 [Compound (1), N-(2-aminoethyl)-N-methyl-5-isoquinolinesulfonamide]
EC50 (mesenteric artery; Oryctolagus cuniculus): 5 µM | EC50 (bronchial tubes; Cavia porcellus): 8 µM

CC(C)N(CCN)S(=O)(=O)c1cccc2cnccc12 [Compound (2), N-(2-aminoethyl)-N-isopropyl-5-isoquinolinesulfonamide]
EC50 (mesenteric artery; Oryctolagus cuniculus): 4 µM | EC50 (bronchial tubes; Cavia porcellus): 5 µM

CCCCCCCCN(CCN)S(=O)(=O)c1cccc2cnccc12 [Compound (5), N-(2-aminoethyl)-N-octyl-5-isoquinolinesulfonamide]
EC50 (mesenteric artery; Oryctolagus cuniculus): 2 µM | EC50 (bronchial tubes; Cavia porcellus): 6 µM

NCCN(Cc1ccccc1)S(=O)(=O)c1cccc2cnccc12 [Compound (6), N-(2-aminoethyl)-N-benzyl-5-isoquinolinesulfonamide]
EC50 (mesenteric artery; Oryctolagus cuniculus): 4 µM | EC50 (bronchial tubes; Cavia porcellus): 5 µM

CCCCCCN(CCCN)S(=O)(=O)c1cccc2cnccc12 [Compound (7), N-(3-aminopropyl)-N-hexyl-5-isoquinolinesulfonamide]
EC50 (mesenteric artery; Oryctolagus cuniculus): 2 µM | EC50 (bronchial tubes; Cavia porcellus): 13 µM

CCCCCCN(CCCCN)S(=O)(=O)c1cccc2cnccc12 [Compound (8), N-(4-aminobutyl)-N-hexyl-5-isoquinolinesulfonamide]
EC50 (mesenteric artery; Oryctolagus cuniculus): 5 µM | EC50 (bronchial tubes; Cavia porcellus): 11 µM

CCCCCCN(CCCCCN)S(=O)(=O)c1cccc2cnccc12 [Compound (9), N-(5-aminopentyl)-N-hexyl-5-isoquinolinesulfonamide]
EC50 (mesenteric artery; Oryctolagus cuniculus): 9 µM | EC50 (bronchial tubes; Cavia porcellus): 15 µM

CCCN(CCCCCCN)S(=O)(=O)c1cccc2cnccc12 [Compound (10), N-(6-aminohexyl)-N-propyl-5-isoquinolinesulfonamide]
EC50 (mesenteric artery; Oryctolagus cuniculus): 15 µM | EC50 (bronchial tubes; Cavia porcellus): 16 µM

CCCCCCN(CC(C)N)S(=O)(=O)c1cccc2cnccc12 (stereo not shown) [Compound (11), N-(2-aminopropyl)-N-hexyl-5-isoquinolinesulfonamide]
EC50 (mesenteric artery; Oryctolagus cuniculus): 3 µM | EC50 (bronchial tubes; Cavia porcellus): 9 µM

CCCCCCN(CC(N)CC)S(=O)(=O)c1cccc2cnccc12 (stereo not shown) [Compound (12), N-(2-aminobutyl)-N-hexyl-5-isoquinolinesulfonamide]
EC50 (mesenteric artery; Oryctolagus cuniculus): 4 µM | EC50 (bronchial tubes; Cavia porcellus): 12 µM

CCCCCCC(N)CN(CCCCCC)S(=O)(=O)c1cccc2cnccc12 (stereo not shown) [Compound (13), N-(2-aminooctyl)-N-hexyl-5-isoquinolinesulfonamide]
EC50 (mesenteric artery; Oryctolagus cuniculus): 5 µM | EC50 (bronchial tubes; Cavia porcellus): 19 µM

CCCCCCCCC(N)CN(CCC)S(=O)(=O)c1cccc2cnccc12 (stereo not shown) [Compound (14), N-(2-aminodecyl)-N-propyl-5-isoquinolinesulfonamide]
EC50 (mesenteric artery; Oryctolagus cuniculus): 10 µM | EC50 (bronchial tubes; Cavia porcellus): 22 µM

CCCCCCCCC(N)CN(CCCCCC)S(=O)(=O)c1cccc2cnccc12 (stereo not shown) [Compound (15), N-(2-aminodecyl)-N-hexyl-5-isoquinolinesulfonamide]
EC50 (mesenteric artery; Oryctolagus cuniculus): 7 µM | EC50 (bronchial tubes; Cavia porcellus): 25 µM

CCCCN(C(C)C(C)N)S(=O)(=O)c1cccc2cnccc12 (stereo not shown) [Compound (16), N-(2-amino-1-methylpropyl)-N-butyl-5-isoquinolinesulfonamide]
EC50 (mesenteric artery; Oryctolagus cuniculus): 13 µM | EC50 (bronchial tubes; Cavia porcellus): 13 µM

CCN(C(C)CN)S(=O)(=O)c1cccc2cnccc12 (stereo not shown) [Compound (17), N-(2-amino-1-methylethyl)-N-ethyl-5-isoquinolinesulfonamide]
EC50 (mesenteric artery; Oryctolagus cuniculus): 14 µM | EC50 (bronchial tubes; Cavia porcellus): 10 µM

CCCN(C(CN)C(C)C)S(=O)(=O)c1cccc2cnccc12 (stereo not shown) [Compound (18), N-(1-aminomethyl-2-methylpropyl)-N-propyl-5-isoquinolinesulfonamide]
EC50 (mesenteric artery; Oryctolagus cuniculus): 13 µM | EC50 (bronchial tubes; Cavia porcellus): 13 µM

CCCCCCN(C(CN)CCCC)S(=O)(=O)c1cccc2cnccc12 (stereo not shown) [Compound (19), N-(1-aminomethylpentyl)-N-hexyl-5-isoquinolinesulfonamide]
EC50 (mesenteric artery; Oryctolagus cuniculus): 16 µM | EC50 (bronchial tubes; Cavia porcellus): 13 µM

CCCN(CC(C)CN)S(=O)(=O)c1cccc2cnccc12 (stereo not shown) [Compound (20), N-(3-amino-2-methylpropyl)-N-propyl-5-isoquinolinesulfonamide]
EC50 (mesenteric artery; Oryctolagus cuniculus): 17 µM | EC50 (bronchial tubes; Cavia porcellus): 15 µM

CCCCCCN(C(C)CCCN)S(=O)(=O)c1cccc2cnccc12 (stereo not shown) [Compound (21), N-(4-amino-1-methylbutyl)-N-hexyl-5-isoquinolinesulfonamide]
EC50 (mesenteric artery; Oryctolagus cuniculus): 19 µM | EC50 (bronchial tubes; Cavia porcellus): 17 µM

CCN(CCCCC(C)CN)S(=O)(=O)c1cccc2cnccc12 (stereo not shown) [Compound (22), N-(5-aminomethylhexyl)-N-ethyl-5-isoquinolinesulfonamide]
EC50 (mesenteric artery; Oryctolagus cuniculus): 21 µM | EC50 (bronchial tubes; Cavia porcellus): 20 µM

CCCCCCN(CCC(C)CN)S(=O)(=O)c1cccc2cnccc12 (stereo not shown) [Compound (23), N-(4-amino-3-methylbutyl)-N-hexyl-5-isoquinolinesulfonamide]
EC50 (mesenteric artery; Oryctolagus cuniculus): 18 µM | EC50 (bronchial tubes; Cavia porcellus): 18 µM

CCCCCCN(C(CCC)CCCN)S(=O)(=O)c1cccc2cnccc12 (stereo not shown) [Compound (24), N-(4-amino-1-propylbutyl)-N-hexyl-5-isoquinolinesulfonamide]
EC50 (mesenteric artery; Oryctolagus cuniculus): 23 µM | EC50 (bronchial tubes; Cavia porcellus): 17 µM

CNCCN(C)S(=O)(=O)c1cccc2cnccc12 [Compound (25), N-(2-methylaminoethyl)-N-methyl-5-isoquinolinesulfonamide]
EC50 (mesenteric artery; Oryctolagus cuniculus): 10 µM | EC50 (bronchial tubes; Cavia porcellus): 10 µM

CCNCCN(CC)S(=O)(=O)c1cccc2cnccc12 [Compound (26), N-(2-ethylaminoethyl)-N-ethyl-5-isoquniolinesulfonamide]
EC50 (mesenteric artery; Oryctolagus cuniculus): 11 µM | EC50 (bronchial tubes; Cavia porcellus): 8 µM

CCCCCCN(CCNCCCC)S(=O)(=O)c1cccc2cnccc12 [Compound (27), N-(2-butylaminoethyl)-N-hexyl-5-isoquinolinesulfonamide]
EC50 (mesenteric artery; Oryctolagus cuniculus): 13 µM | EC50 (bronchial tubes; Cavia porcellus): 13 µM

CCCCCCNCCN(CCCCCC)S(=O)(=O)c1cccc2cnccc12 [Compound (29), N-(2-hexylaminoethyl)-N-hexyl-5-isoquinolinesulfonamide]
EC50 (mesenteric artery; Oryctolagus cuniculus): 9 µM | EC50 (bronchial tubes; Cavia porcellus): 10 µM

O=S(=O)(c1cccc2cnccc12)N(CCNCc1ccccc1)Cc1ccccc1 [Compound (30), N-(2-benzylaminoethyl)-N-benzyl-5-isoquinolinesulfonamide]
EC50 (mesenteric artery; Oryctolagus cuniculus): 12 µM | EC50 (bronchial tubes; Cavia porcellus): 12 µM

CCCCN(CCNCCc1ccccc1)S(=O)(=O)c1cccc2cnccc12 [Compound (31), N-butyl-N-(2-phenylethylaminoethyl)-5-isoquinolinesulfonamide]
EC50 (mesenteric artery; Oryctolagus cuniculus): 10 µM | EC50 (bronchial tubes; Cavia porcellus): 15 µM

CCCCCCN(CCNCc1ccccc1)S(=O)(=O)c1cccc2cnccc12 [Compound (32), N-(2-benzylamioethyl)-N-hexyl-5-isoquinolinesulfonamide]
EC50 (mesenteric artery; Oryctolagus cuniculus): 8 µM | EC50 (bronchial tubes; Cavia porcellus): 17 µM

CCCCCCNCCCN(CCCCCC)S(=O)(=O)c1cccc2cnccc12 [Compound (33), N-(3-hexylaminopropyl)-N-hexyl-5-isoquinolinesulfonamide]
EC50 (mesenteric artery; Oryctolagus cuniculus): 13 µM | EC50 (bronchial tubes; Cavia porcellus): 19 µM

CCCCCN(CCCCCCNCc1ccccc1)S(=O)(=O)c1cccc2cnccc12 [Compound (34), N-(6-benzylaminohexyl)-N-pentyl-5-isoquinolinesulfonamide]
EC50 (mesenteric artery; Oryctolagus cuniculus): 20 µM | EC50 (bronchial tubes; Cavia porcellus): 21 µM

CCCCCCNCCCCCCN(CCCCCC)S(=O)(=O)c1cccc2cnccc12 [Compound (35), N-(6-hexylaminohexyl)-N-hexyl-5-isoquinolinesulfonamide]
EC50 (mesenteric artery; Oryctolagus cuniculus): 19 µM | EC50 (bronchial tubes; Cavia porcellus): 25 µM

CCCCCCN(CC(C)NCC)S(=O)(=O)c1cccc2cnccc12 (stereo not shown) [Compound (36), N-(2-ethylaminopropyl)-N-hexyl-5-isoquinolinesulfonamide]
EC50 (mesenteric artery; Oryctolagus cuniculus): 7 µM | EC50 (bronchial tubes; Cavia porcellus): 30 µM

CCCCCCNC(C)CN(CCCCCC)S(=O)(=O)c1cccc2cnccc12 (stereo not shown) [Compound (37), N-(2-hexylaminopropyl)-N-hexyl-5-isoquinolinesulfonamide]
EC50 (mesenteric artery; Oryctolagus cuniculus): 6 µM | EC50 (bronchial tubes; Cavia porcellus): 27 µM

CCCCCCC(CN(CCCC)S(=O)(=O)c1cccc2cnccc12)NCCC (stereo not shown) [Compound (38), N-(2-propylaminoocytyl)-N-butyl-5-isoquinolinesulfonamide]
EC50 (mesenteric artery; Oryctolagus cuniculus): 8 µM | EC50 (bronchial tubes; Cavia porcellus): 23 µM

CCCN(C(C)CCCNCc1ccccc1)S(=O)(=O)c1cccc2cnccc12 (stereo not shown) [Compound (40), N-(4-benzylamino-1-methylbutyl)-N-propyl-5-isoquinolinesulfonamide]
EC50 (mesenteric artery; Oryctolagus cuniculus): 14 µM | EC50 (bronchial tubes; Cavia porcellus): 22 µM

CCCNCC(C)CCCCN(C)S(=O)(=O)c1cccc2cnccc12 (stereo not shown) [Compound (41), N-methyl-N-(6-propylamino-5-methylhexyl)-5-isoquinolinesulfonamide]
EC50 (mesenteric artery; Oryctolagus cuniculus): 17 µM | EC50 (bronchial tubes; Cavia porcellus): 22 µM

CCN(CC)CCN(C)S(=O)(=O)c1cccc2cnccc12 [Compound (42), N-(2-diethylaminoethyl)-N-methyl-5-isoquinolinesulfonamide]
EC50 (mesenteric artery; Oryctolagus cuniculus): 15 µM | EC50 (bronchial tubes; Cavia porcellus): 25 µM

CCCCCCN(C(C)CN(CC)CC)S(=O)(=O)c1cccc2cnccc12 (stereo not shown) [Compound (49), N-(2-diethylamino-1-methylethyl)-N-hexyl-5-isoquinolinesulfonamide]
EC50 (bronchial tubes; Cavia porcellus): 15 µM

O=S(=O)(c1cccc2cnccc12)N1CCCC(Nc2ccccc2)C1 (stereo not shown) [Compound (68), 1-(5-isoquinolinesulfonyl)-3-phenylaminopiperidine]
EC50 (mesenteric artery; Oryctolagus cuniculus): 16 µM
